Measurements published in publication PMC6060383, “Synthesis and pharmacological evaluation of novel isoquinoline N-sulphonylhydrazones designed as ROCK inhibitors” (Journal of Enzyme Inhibition and Medicinal Chemistry, 2018).
≈ marks a conversion by molar mass, not a printed value. Entries after “also recorded” stand apart in the source; their conditions may differ.

Experiments:
[1] = target: T1, ROCK2 human recombinant enzyme (Homo sapiens, UniProt O75116); test: ROCK2 inhibition assay (Eurofins-Cerep, phosphorylation of Ulight-RRRSLLE substrate); format: biochemical
T1 construct: purchased EUROFINS-CEREP France (contract assay, study numbers 100033685 and 100040481); host or cells: Sf21 insect cells
Method: (§1) The analysis was performed using software developed at Cerep (Hill software) and GraphPad Prism® 5.0 (GraphPad Software, Inc., San Diego, CA) and validated through comparison with results generated using the SigmaPlot 4.0 software.
(§2) Prior to this assay, we evaluated the solubility of these compounds in water (buffer pH 7.4) to ensure that the inhibition percentages were not influenced by the precipitation of the compounds under test conditions.

[2] = Water solubility assay (UV spectrophotometric method); format: physicochemical; settings: aqueous buffer, thermodynamic from solid, water (buffer pH 7.4), stirring 4 h at 37 °C
Method: The solubility assay was performed considering the absorptivity of compounds under ultraviolet spectroscopy as described by Schneider et al.[20] Assay wavelength was determined through λmax characteristic of each compound. Saturated aqueous solutions were prepared (0.8–1.0 mg/mL) and kept under stirring for 4 h at 37 °C. The supernatant was filtered in […] filters and transferred to a quartz cuvette (10 mm) for spectra acquisition. Solubility was determined by linear regression used as Excel graph plots, solutions were prepared by dilutions of the original solution in methanol. Data were collected in triplicate and the mean values were used to create the graph plots. The correlation coefficient (R^2) values were between 0.9982 and 1.
The N-sulphonylhydrazone derivatives 5a–h were evaluated for their ability to inhibit both ROCK1 and ROCK2 isoforms by measuring the phosphorylation of the Ulight-RRRSLLE substrate using human recombinant enzymes expressed in Sf9[23] and Sf21^24 cells, respectively. Prior to this assay, we evaluated the solubility of these compounds in water (buffer pH 7.4) to ensure that the inhibition percentages were not influenced by the precipitation of the compounds under test conditions. The enzymatic assay was initially performed at a screening concentration of 3 μM, which is capable of guaranteeing the solubility of most of the compounds, and the obtained results are shown in Table 2.

[3] = target: T2, ROCK1 human recombinant enzyme (Homo sapiens, UniProt Q13464); test: ROCK1 inhibition assay (Eurofins-Cerep, phosphorylation of Ulight-RRRSLLE substrate); format: biochemical
T2 construct: purchased EUROFINS-CEREP France (contract assay, study numbers 100033685 and 100040481); host or cells: Sf9 insect cells
Method: as §1, §2

MDA-MB 231 cells [4] = test: Plasma membrane integrity assay (LDH); format: cell-based, human; settings: 0.1 to 30 µM, 24 and 48 h
Method: (§3) The human mammary gland/breast epithelial cell line MDA-MB 231 was obtained from the American Type Culture Collection (ATCC® HTB-26™) and this use was approved by the Ethics Committee for Animal Care and Use in Scientific Research from the Federal University of Rio de Janeiro. Cells were routinely grown in RPMI medium containing 10% foetal bovine serum (FBS), 1% L-glutamine and 1% penicillin-streptomycin, in a humidified 5% CO2 atmosphere at 37 °C. Cells were cultured up to 70–100% confluence and then some cultures were treated with the compounds at different concentrations for 24 or 48 h. All cell culture reagents were purchased from Invitrogen (São Paulo, Brazil).
To measure plasma membrane integrity, we assayed serum lactate dehydrogenase (LDH) levels and calculated percentages of LDH release to the medium. LDH activity was measured spectrophotometrically using a commercial kit (Doles, Goiás, Brazil). […] Then, 10 μl of NAD were added and absorbance intensities were measured in a microplate reader (FlexStation® 3 Reader, Molecular Devices) at 490 nm. The percentage of LDH release was calculated by ([LDH] sample ×100)/total [LDH]. […]
We also analysed the plasma membrane integrity by measuring the serum lactate dehydrogenase (LDH) levels in the culture medium to confirm the cell viability data. […]

MDA-MB 231 cells [5] = test: Cell-based scratch assay (cell migration); design: species or system human; settings: 10 or 30 μM, 24 h
Method: as §3
Cells were cultured in 24-well culture plates for 24 h up to 90–100% confluence. Scratched wound lines were created with the help of a 200 μl micropipette tip. […] Images were acquired with an Olympus DP71 digital camera (Olympus, Japan) and the wound area was quantified using Fiji software (based on ImageJ, http://imageJ.nih.gov/ij/) from three different experiments.
The functions of Rho-kinase include the regulation of cellular contraction, motility, morphology, polarity, division, and gene expression. Therefore, we performed a cell-based scratch assay followed by the quantification of the wounded area to analyse whether compounds 5b (LASSBio-2020) and 11 (LASSBio-2065) altered cell migration. […]

[6] = screening concentration 3 μM, average of two experiments

T2 sequence (Q13464 whole entry): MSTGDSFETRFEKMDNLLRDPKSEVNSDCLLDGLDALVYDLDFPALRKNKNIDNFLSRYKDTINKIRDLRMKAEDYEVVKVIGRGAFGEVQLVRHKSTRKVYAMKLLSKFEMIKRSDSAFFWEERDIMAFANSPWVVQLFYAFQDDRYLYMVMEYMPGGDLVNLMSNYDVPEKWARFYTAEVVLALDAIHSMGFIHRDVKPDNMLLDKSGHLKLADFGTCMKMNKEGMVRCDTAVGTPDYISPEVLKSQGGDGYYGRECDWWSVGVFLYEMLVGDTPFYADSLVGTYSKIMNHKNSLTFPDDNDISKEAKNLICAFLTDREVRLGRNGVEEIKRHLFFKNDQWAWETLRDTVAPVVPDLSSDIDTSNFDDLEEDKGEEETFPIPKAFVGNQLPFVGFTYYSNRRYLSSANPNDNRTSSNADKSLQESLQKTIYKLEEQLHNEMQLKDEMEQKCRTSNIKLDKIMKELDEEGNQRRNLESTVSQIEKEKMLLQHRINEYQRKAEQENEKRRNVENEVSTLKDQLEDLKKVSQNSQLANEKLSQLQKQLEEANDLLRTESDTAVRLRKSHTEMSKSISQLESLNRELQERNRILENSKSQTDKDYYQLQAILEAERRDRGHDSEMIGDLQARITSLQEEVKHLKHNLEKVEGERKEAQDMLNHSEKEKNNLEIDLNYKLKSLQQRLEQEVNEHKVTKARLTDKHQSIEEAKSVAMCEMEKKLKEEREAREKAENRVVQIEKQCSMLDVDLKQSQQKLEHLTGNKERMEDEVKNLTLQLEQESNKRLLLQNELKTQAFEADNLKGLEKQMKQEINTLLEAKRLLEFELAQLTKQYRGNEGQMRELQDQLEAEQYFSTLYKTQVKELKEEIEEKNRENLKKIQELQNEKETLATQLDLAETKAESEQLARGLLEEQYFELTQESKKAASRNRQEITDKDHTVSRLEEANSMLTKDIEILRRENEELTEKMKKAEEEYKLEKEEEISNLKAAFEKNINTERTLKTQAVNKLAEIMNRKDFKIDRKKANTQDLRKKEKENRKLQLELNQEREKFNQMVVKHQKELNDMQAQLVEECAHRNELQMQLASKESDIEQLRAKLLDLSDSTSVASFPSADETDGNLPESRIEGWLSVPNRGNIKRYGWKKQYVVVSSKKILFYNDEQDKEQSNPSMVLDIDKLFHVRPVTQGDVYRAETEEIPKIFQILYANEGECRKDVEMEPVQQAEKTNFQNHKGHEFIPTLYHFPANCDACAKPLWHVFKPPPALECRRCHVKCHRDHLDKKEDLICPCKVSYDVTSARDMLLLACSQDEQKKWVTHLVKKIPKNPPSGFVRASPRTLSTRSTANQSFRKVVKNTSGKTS
T1 sequence (O75116 1-543 limits assumed): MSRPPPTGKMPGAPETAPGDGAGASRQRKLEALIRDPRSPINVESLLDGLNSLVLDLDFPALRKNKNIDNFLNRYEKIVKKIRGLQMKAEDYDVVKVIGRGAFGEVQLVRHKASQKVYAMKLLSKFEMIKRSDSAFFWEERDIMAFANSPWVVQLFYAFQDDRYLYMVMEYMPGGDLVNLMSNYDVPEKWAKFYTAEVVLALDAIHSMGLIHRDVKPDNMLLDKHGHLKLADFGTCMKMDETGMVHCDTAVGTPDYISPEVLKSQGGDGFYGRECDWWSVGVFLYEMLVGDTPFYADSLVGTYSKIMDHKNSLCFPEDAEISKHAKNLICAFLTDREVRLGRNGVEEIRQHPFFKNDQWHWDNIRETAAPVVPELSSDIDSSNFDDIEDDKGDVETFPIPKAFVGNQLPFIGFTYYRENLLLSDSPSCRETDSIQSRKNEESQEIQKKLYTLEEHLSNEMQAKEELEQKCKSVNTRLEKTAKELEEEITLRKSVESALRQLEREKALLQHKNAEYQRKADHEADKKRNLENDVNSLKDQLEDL

## O=S(=O)(N/N=C/c1ccccc1)c1cccc2cnccc12 [Compound 5b, (E)-N′-benzylideneisoquinoline-5-sulphonohydrazide]
[1]; human recombinant ROCK2, five-point assay, 1 to 50 µM, mean of two experiments
  IC50: 7.1 µM
[1]; [6]
  inhibition at 3 µM: 24.2%
[2]
  solubility at 4 h: 54 µM (≈ 16.8 µg/mL)
[3]; human recombinant ROCK1, five-point assay, 1 to 50 µM, mean of two experiments
  IC50: 13 µM
[3]; [6]
  inhibition at 3 µM: 29%
MDA-MB 231 cells [4]
  LDH levels in culture medium / cytotoxicity in LDH assay (result in words): not altered
MDA-MB 231 cells [5]
  effect on cell migration (result in words): inhibited MDA-MB 231 cell migration; also recorded: effective at inhibiting cell migration
